# Source: US6509328B1, “Glutamate receptor antagonists” (Hoffmann-La Roche Inc., priority 1999, dated 2003)
row,Structure (SMILES),melting point
1,"N#Cc1cccc(C2=Nc3ccc(C#Cc4cccs4)cc3NC(=O)C2)c1 [Example 50, 3-(4-Oxo-7-thiophen-2-ylethynyl-4,5-dihydro-3H-benzo [b][1,4]diazepin-2-yl)-benzonitrile]",235 to 238 °C (dec.)
2,"N#Cc1cccc(C2=Nc3ccc(-c4cccc(F)c4F)cc3NC(=O)C2)c1 [Example 51, 3-[7-(2,3-Difluoro-phenyl)-4-oxo-4,5-dihydro-3H-benzo [b][1,4]diazepin-2-yl]-benzonitrile]",240 °C
3,"N#Cc1cccc(C2=Nc3ccc(-c4ccc(-c5ccccc5)cc4)cc3NC(=O)C2)c1 [Example 54, 3-(7-Biphenyl-4-yl-4-oxo-4,5-dihydro-3H-benzo [b][1,4]diazepin-2-yl)-benzonitrile]",251 to 253 °C
4,"N#Cc1cccc(C2=Nc3ccc(C#Cc4ccc(OC(F)(F)F)cc4)cc3NC(=O)C2)c1 [Example 55, 3-[4-Oxo-7-(4-trifluoromethoxy-phenylethynyl)-4,5-dihydro-3H-benzo [b][1,4]diazepin-2-yl]-benzonitrile]",239 to 241 °C
5,"O=C1CC(c2cccc([N+](=O)[O-])c2)=Nc2ccc(C#Cc3ccccc3)cc2N1 [Example 56, 4-(3-Nitro-phenyl)-8-phenylethynyl-1,3-dihydro-benzo [b][1,4]diazepin-2-one]",228 to 229 °C
6,"COc1ccc(-c2ccc3c(c2)NC(=O)CC(c2cccc(-n4ccnc4)c2)=N3)cc1 [Example 61, 4-(3-Imidazol-1-yl-phenyl)-8-(4-methoxy-phenyl)-1,3-dihydro-benzo [b][1,4]diazepin-2-one]",207 to 208 °C
7,"O=C1CC(c2cccc(-n3ccnc3)c2)=Nc2ccc(C#Cc3ccccc3F)cc2N1 [Example 63, 8-(2-Fluoro-phenylethynyl)-4-(3-imidazol-1-yl-phenyl)-1,3-dihydro-benzo [b][1,4]diazepin-2-one]",201 to 203 °C
8,"O=C1CC(c2cccc(-n3cncn3)c2)=Nc2ccc(-c3ccc(F)cc3)cc2N1 [Example 64, 8-(4-Fluoro-phenyl)-4-(3-[1,2,4]triazol-1-yl-phenyl)-1,3-dihydro-benzo [b][1,4]diazepin-2-one]",241 to 245 °C
9,"N#Cc1ccc(-c2ccc3c(c2)NC(=O)CC(c2cccc(C#N)c2)=N3)cc1 [Example 65, 3-[7-(4-Cyano-phenyl)-4-oxo-4,5-dihydro-3H-benzo [b][1,4]diazepin-2-yl]-benzonitrile]",240 °C (dec.)
10,"N#Cc1ccc(-c2ccc3c(c2)NC(=O)CC(c2cccc(-n4ccnc4)c2)=N3)cc1 [Example 66, 4-[2-(3-Imidazol-1-yl-phenyl)-4-oxo-4,5-dihydro-3H-benzo [b][1,4]diazepin-7-yl]-benzonitrile]",209 to 213 °C (dec.)
11,"O=C1CC(c2cccc([N+](=O)[O-])c2)=Nc2ccc(-c3ccc(F)cc3)cc2N1 [Example 67, 8-(4-Fluoro-phenyl)-4-(3-nitro-phenyl)-1,3-dihydro-benzo [b][1,4]diazepin-2-one]",220 to 226 °C (dec.)
12,"O=C1CC(c2ccnc(-n3ccnc3)c2)=Nc2ccc(-c3ccc(F)cc3)cc2N1 [Example 69, 8-(4-Fluoro-phenyl)-4-(2-imidazol-1-yl-pyridin-4-yl)-1,3-dihydro-benzo [b][1,4]diazepin-2-one]",213 °C (dec.)
13,"Nc1cccc(C2=Nc3ccc(-c4ccc(F)cc4)cc3NC(=O)C2)c1 [Example 70, 4-(3-Amino-phenyl)-8-(4-fluoro-phenyl)-1,3-dihydro-benzo [b][1,4]diazepin-2-one]",210 to 217 °C (dec.)
14,"CS(=O)(=O)Nc1cccc(C2=Nc3ccc(-c4ccc(F)cc4)cc3NC(=O)C2)c1 [Example 73, N-{3-[7-(4-Fluoro-phenyl)-4-oxo-4,5-dihydro-3H-benzo [b][1,4]diazepin-2-yl]-phenyl}-methanesulfonamide]",232 to 235 °C
15,"O=C1CC(c2cccc(-n3ccnc3)c2)=Nc2ccc(-c3ccc(OCc4ccccc4)nc3)cc2N1 [Example 74, 8-(6-Benzyloxy-pyridin-3-yl)-4-(3-imidazol-1-yl-phenyl)-1,3-dihydro-benzo [b][1,4]-diazepin-2-one]",225 to 231 °C
16,"Cc1cn(-c2cccc(C3=Nc4ccc(C#Cc5ccc(F)cc5)cc4NC(=O)C3)c2)cn1 [Example 78, 8-(4-Fluoro-phenylethynyl)-4-[3-(4-methyl-imidazol-1-yl)-phenyl]-1,3-dihydro-benzo [b][1,4]diazepin-2-one]",210 °C
17,"Cc1nccn1-c1cccc(C2=Nc3ccc(-c4ccccc4F)cc3NC(=O)C2)c1 [Example 81, 8-(2-Fluoro-phenyl)-4-[3-(2-methyl-imidazol-1-yl)-phenyl]-1,3-dihydro-benzo[b][1,4]diazepin-2-one]",187 °C
18,"Cc1nccn1-c1cccc(C2=Nc3ccc(-c4ccc(F)cc4)cc3NC(=O)C2)c1 [Example 82, 8-(4-Fluoro-phenyl)-4-[3-(2-methyl-imidazol-1-yl)-phenyl]-1,3-dihydro-benzo[b][1,4]diazepin-2-one]",227 °C
19,"N#Cc1ccsc1C1=CC(=O)Nc2cc(-c3ccccc3F)ccc2N1 [Example 84, 2-[7-(2-Fluoro-phenyl)-4-oxo-4,5-dihydro-1H-benzo [b][1,4]diazepin-2-yl]-thiophene-3-carbonitrile]",238 to 240 °C

row,Structure (SMILES),melting point
1,"O=C1CC(c2cccc(-n3cnnn3)c2)=Nc2ccc(-c3ccccc3F)cc2N1 [Example 88, 8-(2-Fluoro-phenyl)-4-(3-tetrazol-1-yl-phenyl)-1,3-dihydro-benzo [b][1,4]diazepin-2-one]",179 to 180 °C
2,"Cc1cn(-c2cccc(C3=Nc4ccc(-c5ccc(F)cc5)cc4NC(=O)C3)c2)c(C)n1 [Example 89, 4-[3-(2,4-Dimethyl-imidazol-1-yl)-phenyl]-8-(4-fluoro-phenyl)-1,3-dihydro-benzo[b][1,4]diazepin-2-one]",188 °C
3,"Cc1cn(-c2cccc(C3=Nc4ccc(C#Cc5ccccc5)cc4NC(=O)C3)c2)c(C)n1 [Example 90, 4-[3-(2,4-Dimethyl-imidazol-1-yl)-phenyl]-8-phenylethynyl-1,3-dihydro-benzo[b][1,4]diazepin-2-one]",134 °C (dec.)
4,"O=C1CC(c2sccc2Cl)=Nc2ccc(-c3ccc(F)cc3)cc2N1 [Example 91, 4-(3-Chloro-thiophen-2-yl)-8-(4-fluoro-phenyl)-1,3-dihydro-benzo [b][1,4]diazepin-2-one]",255 to 256 °C
5,"N#Cc1cccc(C2=Nc3ccc(-c4cccc(F)c4)cc3NC(=O)C2)c1 [Example 96, 3-[7-(3-Fluoro-phenyl)-4-oxo-4,5-dihydro-3H-benzo [b][1,4]diazepin-2-yl]-benzonitrile]",232 to 235 °C
6,"O=C1CC(c2cccc(-n3cnnc3)c2)=Nc2ccc(-c3ccccc3F)cc2N1 [Example 99, 8-(2-Fluoro-phenyl)-4-(3-[1,2,4]triazol-4-yl-phenyl)-1,3-dihydro-benzo [b][1,4]diazepin-2-one]",198 °C
7,"N#Cc1ccc(C2=Nc3ccc(-c4ccccc4F)cc3NC(=O)C2)s1 [Example 100, 5-[7-(2-Fluoro-phenyl)-4-oxo-4,5-dihydro-3H-benzo [b][1,4]diazepin-2-yl]-thiophene-2-carbonitrile]",> 250 °C
8,"Cc1cn(-c2cccc(C3=Nc4ccc(-c5ccccc5F)cc4NC(=O)C3)c2)c(C)n1 [Example 101, 4-[3-(2,4-Dimethyl-imidazol-1-yl)-phenyl]-8-(2-fluoro-phenyl)-1,3-dihydro-benzo[b][1,4]diazepin-2-one]",92 °C
9,"COCSc1nccn1-c1cccc(C2=Nc3ccc(-c4ccccc4F)cc3NC(=O)C2)c1 [Example 102, 8-(2-Fluoro-phenyl)-4-[3-(2-methoxymethylsulfanyl-imidazol-1-yl)-phenyl]-1,3-dihydro-benzo[b][1,4]diazepin-2-one]",189 to 190 °C
10,"N#Cc1ccc(F)c(C2=Nc3ccc(-c4ccccc4F)cc3NC(=O)C2)c1 [Example 103, 4-Fluoro-3-[7-(2-fluoro-phenyl)-4-oxo-4,5-dihydro-3H-benzo [b][1,4]diazepin-2-yl]-benzonitrile]",239 °C
11,"CC(C)c1ccc2c(c1)NC(=O)CC(c1ccnc(C#N)c1)=N2 [Example 105, 4-(7-Isopropyl-4-oxo-4,5-dihydro-3H-benzo [b][1,4]diazepin-2-yl)-pyridine-2-carbonitrile]",173 to 178 °C
12,"Cc1cn(-c2nc(C3=Nc4ccc(-c5ccccc5F)cc4NC(=O)C3)cs2)cn1 [Example 106, 8-(2-Fluoro-phenyl)-4-[2-(4-methyl-imidazol-1-yl)-thiazol-4-yl]-1,3-dihydro-benzo[b][1,4]diazepin-2-one]",229 °C
13,"Cc1cn(-c2nc(C3=Nc4ccc(-c5ccc(F)cc5)cc4NC(=O)C3)cs2)cn1 [Example 107, 8-(4-Fluoro-phenyl)-4-[2-(4-methyl-imidazol-1-yl)-thiazol-4-yl]-1,3-dihydro-benzo[b][1,4]diazepin-2-one]",229 °C
14,"N#Cc1cccc(C2=Nc3ccc(CCc4ccccc4)cc3NC(=O)C2)c1 [Example 108, 3-(4-Oxo-7-phenethyl-4,5-dihydro-3H-benzo[b][1,4]diazepin-2-yl)-benzonitrile]",212 to 214 °C
15,"N#Cc1cccc(C2=Nc3ccc(C4CC4)cc3NC(=O)C2)c1 [Example 111, 3-(7-Cyclopropyl-4-oxo-4,5-dihydro-3H-benzo [b][1,4]diazepin-2-yl)-benzonitrile]",204 to 209 °C
16,"N#Cc1cc(C2=Nc3ccc(C4CC4)cc3NC(=O)C2)ccn1 [Example 112, 4-(7-Cyclopropyl-4-oxo-4,5-dihydro-3H-benzo[b][1,4]diazepin-2-yl)-pyridine-2-carbonitrile]",227 to 230 °C
17,"O=C1CC(c2cccc(-n3ccnn3)c2)=Nc2ccc(C#Cc3ccc(F)cc3)cc2N1 [Example 115, 8-(4-Fluoro-phenylethynyl)-4-(3-[1,2,3]triazol-1-yl-phenyl)-1,3-dihydro-benzo[b][1,4]diazepin-2-one]",246 to 248 °C
18,"N#Cc1cccc(C2=Nc3ccc(-c4cc(F)ccc4F)cc3NC(=O)C2)c1 [Example 125, 3-[7-(2,5-Difluoro-phenyl)-4-oxo-4,5-dihydro-3H-benzo [b][1,4]diazepin-2-yl]-benzonitrile]",247 °C
